One experiment deals with E. coli ATCC #10536. Kind of experiment: Synergy test: high resolution MBC microtiter plate assay in phosphate buffer containing 35% dipropylene glycol, 15 seconds contact. Type of experiment: cell-based, Escherichia coli. The following applies: E. coli 10536, complete kill in 15 seconds, phosphate buffer with 35% DPG. The source says:
One measure of synergy is the industrially accepted method described by Kull, F. C.; Eisman. P. C.; Sylwestrowicz, H. D. and Mayer, R. L., in Applied Microbiology 9:538-541 (1961), using the ratio determined by the formula: Qa/QA÷Qb/QB=Synergy Index (“SI”) wherein: QA=concentration of compound A (first component) in percent, acting alone, which produced an end point (MBC of Compound A). […]=concentration of compound A in percent, in the mixture, which produced an end point. QB=concentration of compound B (second component) in percent, acting alone, which produced an end point (MBC of Compound B). Qb=concentration of compound B in percent, in the mixture, which produced an end point.
When the sum of Qa/QA and Qb/QB is greater than one, antagonism is indicated. […] The lower the SI, the greater is the synergy shown by that particular mixture. The minimum biocidal concentration (MBC) of a microbicide is the lowest concentration tested under a specific set of conditions that provides complete kill of the tested microorganisms.
Synergy tests were conducted using standard microtiter plate assays with phosphate buffer containing 35% dipropylene glycol (DPG). In this method, a wide range of combinations of chemicals was tested by conducting high resolution MBC assays of Component (A) in the presence of various concentrations of Component (B). High resolution MBCs were determined by adding varying amounts of microbicide to one column of a microtiter plate and doing subsequent ten-fold dilutions using an automated liquid handling system to obtain a series of closely spaced endpoints. The MBC plate was inoculated one column at a time with the test microorganism. An aliquot of the inoculated well was transferred at 15 seconds to a plate containing a neutralizing agent (D/E Neutralizing Broth), mixed and held for 5 minutes before being transferred to a growth plate containing trypticase soy broth (TSB). The TSB plate was incubated at 37° C. and read for the presence/absence of growth at 24 hours. The lowest level tested that provided complete kill (as evidenced by no growth in the microtitre plate) of the test organisms in 15 seconds is the minimum biocidal concentration (MBC).
The synergy of the combinations of the present invention was determined against a bacterium, Esherichia coli (E. coli—ATCC #10536), at a concentration of approximately 1×10^8 bacteria per mL. This microorganism is representative of natural contaminants in many consumer and industrial applications.

Experiment [1] has as its system Staphylococcus aureus (10788 strain). Briefly: Antimicrobial efficacy of actives against S. aureus in water, 15 seconds contact, NMBS. It is filed as cell-based. The protocol:
Selected materials were also tested against a representative Gram positive Staphylococcus aureus.
The following assay describes the testing of 8 materials using 6 dilutions across half of a 96-well micro titre plate (MTP). Using this approach it is possible to assay 16 actives (without replicates) with one full dilution plate, replicating this set up in two halves of the plate columns, 1-6 and 7-12.
Bacterial stock (30 μl) was then added to the prepared 270 μl of the solution of actives in the Screening Plate and mixed, using a multichannel pipette with 8 tips to aspirate and dispense the same volume of bacterial stock in parallel to 8 wells in rows A-H. After a contact time of 15 seconds, the mixtures were quenched by transferring 30 μl volumes of the mixtures into the 270 μl D/E neutralising solution in the prepared dilution plate, using aspiration to mix. After exactly 5 minutes in the D/E neutralising solution, […] were transferred from column 1 to column 2 of the Dilution MTP and mixed, before transferring further 30 μl volumes from column 2 into column 3. This process was repeated serially diluting the bacteria across the plate to column 6.
30 μl volumes from each well in the Dilution MTP were transferred onto pre-labelled segment of Tryptone Soya Agar (TSA) plates starting from the lowest bacterial concentration (highest dilution, column 6) to the highest bacterial concentration (column 1). The TSA plates were allowed to stand for ca. 2 hours so that the 30 μl inocula spots could dry and the plates were then inverted and incubated overnight at 37° C. before enumerating the bacterial colonies at the labelled dilutions to determine the effects of the actives on bacterial growth.
Mean bacterial survival numbers NMBS (expressed in Log CFU/ml) are obtained by first determining the segment of the TSA plate where the number of bacterial colonies is countable. From the colony number in this segment. NMBS is calculated by the formula: NMBS=log {Ncol·10^DF·100/3} Here, Ncol is the colony count, and DF is the dilution factor taken from the MTP-well corresponding to the TSA plate segment (i.e. DF may range from 1 for the quench, to 6 for the highest dilution). The factor 100/3 is a conversion factor from the volume of the inocula spot to one milliliter.
Every assay test was performed in triplicate.
Thus, a value of NMBS as of about 7 corresponds to a count of about […] from the fifth dilution well, i.e. with DF=5. Such a count of about 7 is generally observed when bacteria are exposed to non-biocidal materials. In case no surviving colonies are observed in any segment of the TSA plate, this is interpreted as complete kill and a value of NMBS=0 is reported.
S. aureus Bacterial stock was prepared as shown below and the antibacterial efficacy of the active was carried out as explained earlier for E. Coli.
An overnight culture of Staphylococcus aureus (10788 strain) was inoculated onto a Tripticase Soy Agar (TSA) plate and grown for ca. 18 hrs at 37° C. The culture of S. aureus was washed from the plate using sterile saline (0.85% NaCl) solution and a sterile spreader and suspended in 50 ml saline. This suspension was separated into equal volumes and centrifuged at 4000 rpm for 15 minutes. Following centrifugation the pellet was re-suspended in saline to give a final concentration of 0.35 OD620 equivalent to about 10^8 cells per milliliter for this particular organism. Here. OD620 indicates the absorbance of a sample in a cuvette of 1.0 cm path length at a wavelength of 620 nm. This bacterial stock was used for assaying against antimicrobial actives (in triplicate).

A further experiment deals with S. aureus ATCC 6538. Kind of experiment: Synergy of terpinyl alcohols with phenolic compounds in water, 15 seconds contact, plate count log reduction. Particulars: […] alone. It is filed as cell-based, Staphylococcus aureus. The protocol:
Liquid actives were used directly. Solid actives were dissolved in alcohol and a 50% stock was made.
The culture was grown overnight in Tryptone soya agar. It was suspended in saline (0.85% NaCl) to a con. of 1.5×10^8-5×10^8 cells/ml
To 9 ml water the actives were added to give the desired concentration. 1 ml of the culture was added and mixed. After 15 seconds contact 1 ml aliquot was removed and added to a neutraliser and kept for 5 minutes. A control of untreated cells was similarly processed. It was then diluted and plated. The plates were incubated at 37° C. for 24 hours. The colonies on the plates were counted. The counts were converted to log10. The log. no. of survivors was determined and log reduction calculated.

Each structure is given as a SMILES string.

On to `C=C(C)C1CCC(C)C(O)C1` (stereo not shown) [2-methyl-5-(prop-1-en-2-yl)cyclohexanol], for which the “MBC of the component acting alone (QA or QB; Qa or Qb with the other component at 0)” value with E. coli ATCC #10536 is listed as 0.5 weight %. In experiment [1] (0.5% w/v alone, S. aureus, 15 s), this molecule yielded an NMBS of 7.34 log CFU/ml. This molecule registered an MBC in experiment [1] (component alone, against S. aureus, in water) above 1.5 % w/v. Further, the “Log reduction S. aureus ATCC 6538” value in the experiment with S. aureus ATCC 6538 is reported as −0.15.

(Values after patent US9820483B2, “Microbial composition” (Rohm and Haas Company, priority 2011, dated 2017).)
